The record followed here is PubChem BioAssay AID1259407 (Chemical Carcinogenesis Research Information System (CCRIS), 2018).

Activity calls are given as the source filed them. No rule for the calls is given here.

This data set relates to CCRIS mutagenicity, Ames/micronucleus/aberration tests. Description: CCRIS mutagenicity studies.
[1] abbreviates: Test System: AMES SALMONELLA TYPHIMURIUM, Strain/Indicator: TA98, Metabolic Activation: NONE, Method: STANDARD PLATE.
Setting [2] is: Test System: AMES SALMONELLA TYPHIMURIUM, Strain/Indicator: TA98, Metabolic Activation: RAT, LIVER, S-9, AROCLOR 1254, Method: STANDARD PLATE.
Setting [3] is: Test System: AMES SALMONELLA TYPHIMURIUM, Strain/Indicator: TA100, Metabolic Activation: NONE, Method: PREINCUBATION
[4] abbreviates: Test System: AMES SALMONELLA TYPHIMURIUM, Strain/Indicator: TA100, Metabolic Activation: NONE, Method: STANDARD PLATE.
Where [5] appears, read: Test System: AMES SALMONELLA TYPHIMURIUM, Strain/Indicator: TA100, Metabolic Activation: RAT, LIVER, S-9, AROCLOR 1254, Method: PREINCUBATION
[6] abbreviates: Test System: AMES SALMONELLA TYPHIMURIUM, Strain/Indicator: TA100, Metabolic Activation: RAT, LIVER, S-9, AROCLOR 1254, Method: STANDARD PLATE.
The mark [7] stands for this setting: Test System: MOUSE LYMPHOMA, Strain/Indicator: L5178Y (TK+/TK-), Metabolic Activation: NONE, Method: SUSPENSION/PLATE.

Turning to `O=C/C=C/c1ccc([N+](=O)[O-])cc1`, the mutagenic call was “active; positive” (Test System: AMES SALMONELLA TYPHIMURIUM, Strain/Indicator: TA98, Metabolic Activation: HAMSTER, LIVER, S-9, AROCLOR 1254, Method: STANDARD PLATE); “active; positive” under setting [1]; “active; positive” under setting [2]; “active; positive” (Test System: AMES SALMONELLA TYPHIMURIUM, Strain/Indicator: TA100(1,8-DNP6), Metabolic Activation: NONE, Method: PREINCUBATION); “active; positive” (Test System: AMES SALMONELLA TYPHIMURIUM, Strain/Indicator: TA100(1,8-DNP6), Metabolic Activation: RAT, LIVER, S-9, AROCLOR 1254, Method: PREINCUBATION); “inactive; negative” (Test System: AMES SALMONELLA TYPHIMURIUM, Strain/Indicator: TA100(NR), Metabolic Activation: NONE, Method: PREINCUBATION). The mutagenic call (Test System: AMES SALMONELLA TYPHIMURIUM, Strain/Indicator: TA100(NR), Metabolic Activation: RAT, LIVER, S-9, AROCLOR 1254, Method: PREINCUBATION) is “active; positive”; the mutagenic call (Test System: AMES SALMONELLA TYPHIMURIUM, Strain/Indicator: TA100, Metabolic Activation: HAMSTER, LIVER, S-9, AROCLOR 1254, Method: STANDARD PLATE) is “active; positive”; the mutagenic call under setting [3] is “active; positive”; the mutagenic call under setting [4] was “active; positive”; the mutagenic call under setting [5] was “active; positive”; the mutagenic call under setting [6] is “active; positive”. The mutagenic call is “active; positive. reevaluation of results: positive” under setting [7] and “inactive; negative. reevaluation of results: negative” (Test System: MOUSE LYMPHOMA, Strain/Indicator: L5178Y (TK+/TK-), Metabolic Activation: RAT, LIVER, S-9, AROCLOR 1254, Method: SUSPENSION/PLATE).

Turning to `NC(=O)CCC(=O)Nc1ccc(Cl)c(Cl)c1Cl`, the mutagenic call is “inactive; negative” under setting [1], “inactive; negative” under setting [2], “inactive; negative” under setting [4] and “inactive; negative” under setting [6].

Regarding `COc1cc2c3c(c1OC)-c1cc4c(cc1C[C@@H]3N(C)CC2)OCO4`, the mutagenic call by setting is: (Test System: AMES SALMONELLA TYPHIMURIUM, Strain/Indicator: TA98, Metabolic Activation: RAT, LIVER, S-9, PHENOBARBITAL AND BETA-NAPHTHOFLAVONE, Method: PREINCUBATION) “active; positive”; (Test System: AMES SALMONELLA TYPHIMURIUM, Strain/Indicator: TA100, Metabolic Activation: RAT, LIVER, S-9, PHENOBARBITAL AND BETA-NAPHTHOFLAVONE, Method: PREINCUBATION) “active; positive”.

`Nc1ccc(N)c2c1C(=O)c1c(N)ccc(N)c1C2=O`: the mutagenic call (End Point: IN VITRO CHROMOSOMAL ABERRATIONS, Test System: CHO CELLS, Metabolic Activation: NONE) was “active; positive”; the mutagenic call (End Point: IN VITRO CHROMOSOMAL ABERRATIONS, Test System: CHO CELLS, Metabolic Activation: RAT, LIVER, S-9, AROCLOR 1254) is “active; positive”; the mutagenic call (Test System: AMES SALMONELLA TYPHIMURIUM, Strain/Indicator: TA97, Metabolic Activation: HAMSTER, LIVER, S-9, AROCLOR 1254 (10%), Method: PREINCUBATION) is “inactive; negative”; the mutagenic call (Test System: AMES SALMONELLA TYPHIMURIUM, Strain/Indicator: TA97, Metabolic Activation: HAMSTER, LIVER, S-9, AROCLOR 1254, Method: PREINCUBATION) is “active; positive”; the mutagenic call (Test System: AMES SALMONELLA TYPHIMURIUM, Strain/Indicator: TA97, Metabolic Activation: NONE, Method: PREINCUBATION) is “active; positive”; the mutagenic call (Test System: AMES SALMONELLA TYPHIMURIUM, Strain/Indicator: TA97, Metabolic Activation: RAT, LIVER, S-9, AROCLOR 1254 (10%), Method: PREINCUBATION) is “inactive; negative”. Also, the mutagenic call (Test System: AMES SALMONELLA TYPHIMURIUM, Strain/Indicator: TA97, Metabolic Activation: RAT, LIVER, S-9, AROCLOR 1254, Method: PREINCUBATION) is “active; positive”; the mutagenic call (Test System: AMES SALMONELLA TYPHIMURIUM, Strain/Indicator: TA98, Metabolic Activation: HAMSTER, LIVER, S-9, AROCLOR 1254 (10%), Method: PREINCUBATION) is “active; positive”; the mutagenic call (Test System: AMES SALMONELLA TYPHIMURIUM, Strain/Indicator: TA98, Metabolic Activation: HAMSTER, LIVER, S-9, AROCLOR 1254, Method: PREINCUBATION) was “active; positive”; the mutagenic call (Test System: AMES SALMONELLA TYPHIMURIUM, Strain/Indicator: TA98, Metabolic Activation: NONE, Method: PREINCUBATION) was “active; positive”; the mutagenic call under setting [1] is “inactive; negative”; the mutagenic call (Test System: AMES SALMONELLA TYPHIMURIUM, Strain/Indicator: TA98, Metabolic Activation: RAT, LIVER, S-9, AROCLOR 1254 (10%), Method: PREINCUBATION) was “active; positive”. The mutagenic call is, setting by setting: (Test System: AMES SALMONELLA TYPHIMURIUM, Strain/Indicator: TA98, Metabolic Activation: RAT, LIVER, S-9, AROCLOR 1254, Method: PREINCUBATION) “active; positive”; under setting [2], “inactive; negative”; (Test System: AMES SALMONELLA TYPHIMURIUM, Strain/Indicator: TA100, Metabolic Activation: HAMSTER, LIVER, S-9, AROCLOR 1254 (10%), Method: PREINCUBATION) “inactive; negative”; (Test System: AMES SALMONELLA TYPHIMURIUM, Strain/Indicator: TA100, Metabolic Activation: HAMSTER, LIVER, S-9, AROCLOR 1254, Method: PREINCUBATION) “inactive; negative”; under setting [3], “inactive; negative”; under setting [4], “inactive; negative”. The mutagenic call by setting is: (Test System: AMES SALMONELLA TYPHIMURIUM, Strain/Indicator: TA100, Metabolic Activation: RAT, LIVER, S-9, AROCLOR 1254 (10%), Method: PREINCUBATION) “inactive; negative”; under setting [5], “inactive; negative”; under setting [6], “inactive; negative”; (Test System: AMES SALMONELLA TYPHIMURIUM, Strain/Indicator: TA1535, Metabolic Activation: HAMSTER, LIVER, S-9, AROCLOR 1254 (10%), Method: PREINCUBATION) “active; positive”; (Test System: AMES SALMONELLA TYPHIMURIUM, Strain/Indicator: TA1535, Metabolic Activation: HAMSTER, LIVER, S-9, AROCLOR 1254, Method: PREINCUBATION) “active; positive”; (Test System: AMES SALMONELLA TYPHIMURIUM, Strain/Indicator: TA1535, Metabolic Activation: NONE, Method: PREINCUBATION) “inactive; negative”. For the same molecule, the mutagenic call by setting is: (Test System: AMES SALMONELLA TYPHIMURIUM, Strain/Indicator: TA1535, Metabolic Activation: NONE, Method: STANDARD PLATE) “inactive; negative”; (Test System: AMES SALMONELLA TYPHIMURIUM, Strain/Indicator: TA1535, Metabolic Activation: RAT, LIVER, S-9, AROCLOR 1254 (10%), Method: PREINCUBATION) “active; positive”; (Test System: AMES SALMONELLA TYPHIMURIUM, Strain/Indicator: TA1535, Metabolic Activation: RAT, LIVER, S-9, AROCLOR 1254, Method: PREINCUBATION) “active; positive”; (Test System: AMES SALMONELLA TYPHIMURIUM, Strain/Indicator: TA1535, Metabolic Activation: RAT, LIVER, S-9, AROCLOR 1254, Method: STANDARD PLATE) “inactive; negative”; (Test System: AMES SALMONELLA TYPHIMURIUM, Strain/Indicator: TA1537, Metabolic Activation: NONE, Method: STANDARD PLATE) “active; positive”; (Test System: AMES SALMONELLA TYPHIMURIUM, Strain/Indicator: TA1538, Metabolic Activation: RAT, LIVER, S-9, AROCLOR 1254, Method: STANDARD PLATE) “inactive; negative”. For the same molecule, the mutagenic call under setting [7] was “active; positive”.
